# According to patent US20020098520A1, “Cell tests and diagnostic index for alzheimer's disease” (priority 1993, published 2002):
# “Also recorded” adds a separate entry of the source.
# Columns and labels:
# 113 pS K+ channel = details: low β-amyloid concentration (10 nM), cited from earlier work
# Cp20 = Cp20 immunoblot of AC fibroblasts treated with β-amyloid; assay type: cell-based, human; details: 10 nM β-amyloid for 48 h, 9 AC cell lines
# Protocol: (§1) Cell lines and procedures for cell culture. Human skin fibroblasts were grown to confluence in 75 cc growing surface culture flasks (Falcon) containing Dulbecco's modified Eagle's medium (DMEM, Gibco), supplemented with 10% fetal calf serum (Gibco). […]
# Protein assay, immunoblotting, and total protein analyses procedures. Protein concentration was determined following an established dye-binding protein assay (R. D. Lane et al. J. Immunol Methods 92:261 (1986) for all homogenates. For immunoblots, a SDS-PAGE 4-20% gradient, […] gel was used (Novex, San Diego, Calif.). Sample volume was adjusted to give a protein concentration of 1 μg/μl. Novex sample buffer (16 μl) was added to 16 μl of sample, the solution was heated to 85° C. for 2 min, loaded into the gel and subjected to […] for ≈1.5 h. The Rainbow™ molecular weight standard (Amersham) was also loaded. The resolved proteins were electrophoretically transferred (51.2 mA for 2 h) to a unmodified 8 by 8 cm nitrocellulose paper (Pierce). […]
# [1] = test system: proteins in the 20 kD region; assay: Total protein analysis (SDS-PAGE, Coomassie blue) of β-amyloid treated AC fibroblasts; assay type: cell-based, human; details: 10 nM β-amyloid for 48 h, AC cell lines
# Protocol: as §1
# Protein assay, immunoblotting, and total protein analyses procedures. Protein concentration was determined following an established dye-binding protein assay (R. D. Lane et al. J. Immunol Methods 92:261 (1986) for all homogenates. For immunoblots, a SDS-PAGE 4-20% gradient, […] gel was used (Novex, San Diego, Calif.). Sample volume was adjusted to give a protein concentration of 1 μg/μl. Novex sample buffer (16 μl) was added to 16 μl of sample, the solution was heated to 85° C. for 2 min, loaded into the gel and subjected to […] for ≈1.5 h. The Rainbow™ molecular weight standard (Amersham) was also loaded. The resolved proteins were electrophoretically transferred (51.2 mA for 2 h) to a unmodified 8 by 8 cm nitrocellulose paper (Pierce). […] Immunoblots were then digitized on a flat bed scanner and analyzed with imaging software written in the laboratory (TN Image by T. J. Nelson) for quantitative analysis. […] MW was determined by comparison with Mark12™ standards (Novex). […]
substance,measurement,setting,value
β-amyloid 1-40 peptide,effect on the 113 pS K+ channel / K+ function,113 pS K+ channel; control cells,specific AD-like effects; also recorded: induces an AD-like K+ dysfunction
same,effect on basal levels of intracellular Ca^2+,113 pS K+ channel,without altering basal levels
same,Cp20 level in treated cells compared to non-treated counterparts,Cp20,significantly reduced; also recorded: reduction of Cp20; also recorded: induced the Alzheimer's disease phenotypes for Cp20
same,effect on total protein profile / proteins in the 20 kD region,[1],not a generalized effect on all proteins in the 20 kD region; also recorded: revealed no differences
